Reference: patent US8524917B2, “6-substituted indole-3-carboxylic acid amide compounds having sphingosine-1-phosphate (S1P) receptor antagonist biological activity” (Allergan, Inc., priority 2007, dated 2013)
Where two headings read alike, the source gives them in different places.

Biological target: human S1P3 receptor (Homo sapiens (Human), UniProt Q99500)
Test: Activation or block of activation of human S1P3 receptor, Ca+2 FLIPR assay
Assay type: cell-based
Conditions: for Kb: second concentration in the cell, read-out: S1P3 Kb
Protocol: Compounds were assessed for their ability to activate or block activation of the human S1P3 receptor in T24 cells stably expressing the human S1P3 receptor. Ten thousand cells/well were plated into 384-well poly-D-lysine coated plates one day prior to use. The growth media for the S1P3 receptor expressing cell line was McCoy's 5A medium supplemented with 10% charcoal-treated fetal bovine serum (FBS), 1% antibiotic-antimycotic and 400 μg/ml geneticin. On the day of the experiment, the cells were washed twice with Hank's Balanced Salt Solution supplemented with 20 mM HEPES (HBSS/Hepes buffer). […] Extracellular dye was removed by washing the cell plates four times prior to placing the plates in the FLIPR (Fluorometric Imaging Plate Reader, Molecular Devices). Ligands were diluted in HBSS/Hepes buffer and prepared in 384-well microplates. The positive control, Sphingosine-1-Phosphate (S1P), was diluted in HBSS/Hepes buffer with 4 mg/ml fatty acid free bovine serum albumin. The FLIPR transferred 12.5 μl from the ligand microplate to the cell plate and took fluorescent measurements for 75 seconds, taking readings every second, and then for 2.5 minutes, taking readings every 10 seconds. […] IC50 values were determined through a […] analysis using the Levenburg Marquardt algorithm.

[1] = T24 cells stably expressing the human S1P3 receptor, FLIPR Ca+2 response, 0.61 nM to 10,000 nM, read-out: S1P3 IC50
[2] = T24 cells stably expressing the human S1P3 receptor, value in brackets
[3] = T24 cells stably expressing the human S1P3 receptor

Chain of human S1P3 receptor (Q99500 whole entry): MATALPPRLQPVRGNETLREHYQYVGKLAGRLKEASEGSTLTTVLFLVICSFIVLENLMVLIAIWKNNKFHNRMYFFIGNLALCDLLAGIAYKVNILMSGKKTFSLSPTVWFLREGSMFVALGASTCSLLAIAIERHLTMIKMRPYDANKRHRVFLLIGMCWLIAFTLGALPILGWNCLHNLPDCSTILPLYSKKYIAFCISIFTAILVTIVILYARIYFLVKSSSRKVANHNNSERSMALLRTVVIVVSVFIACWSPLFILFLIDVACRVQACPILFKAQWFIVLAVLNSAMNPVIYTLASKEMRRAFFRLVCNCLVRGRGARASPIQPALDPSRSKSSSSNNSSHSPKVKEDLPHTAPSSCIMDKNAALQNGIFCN

SMILES	IC50 [1] [nM]	S1P3 (% inh) [2]	further results
CC(C)c1c(C(=O)NCc2ccc(F)c(F)c2)c2ccc(C3=N[C@@H](C)CO3)cc2n1Cc1cccnc1 [Compound 82, (S)—N-(3,4-Difluorobenzyl)-2-isopropyl-6-(4-methyl-4,5-dihydrooxazol-2-yl)-1-(pyridin-3-ylmethyl)-1H-indole-3-carboxamide]	44	100%	–
CCOC(=O)c1ccc2c(C(=O)NCc3ccc(F)c(F)c3)c(C(C)C)n(Cc3ncco3)c2c1 [Compound 47, Ethyl 3-(3,4-Difluorobenzylcarbamoyl)-2-isopropyl-1-(oxazol-2-ylmethyl)-1H-indole-6-carboxylate]	350	100%	–
CC[C@H]1COC(c2ccc3c(C(=O)NCc4cc(F)cc(F)c4)c(C(C)C)n(Cc4ccccn4)c3c2)=N1 [Compound 85, (S)—N-(3,5-Difluorobenzyl)-6-(4-ethyl-4,5-dihydrooxazol-2-yl)-2-isopropyl-1-(pyridin-2-ylmethyl)-1H-indole-3-carboxamide]	18	100%	–
CCOC(=O)c1ccc2c(C(=O)NCc3cccnc3)c(C(C)C)n(Cc3ccccc3)c2c1	–	–	IC50: 187 nM; S1P3 (% inh): 187 nM (95) %
CC(C)c1c(C(=O)NCc2cccnc2)c2ccc(O)cc2n1Cc1ccccn1	–	ND (54) %	–
CC(C)c1c(C(=O)NCc2ccc(F)c(F)c2)c2ccc(/C=N/O)cc2n1Cc1ccccc1 [Compound 55, (E)-1-Benzyl-N-(3,4-difluorobenzyl)-6-((hydroxyimino)methyl)-2-isopropyl-1H-indole-3-carboxamide]	234	100%	–
CCNCc1ccc2c(C(=O)NCc3ccc(F)c(F)c3)c(C(C)C)n(Cc3ccccc3)c2c1	2500	87%	–
CC(C)c1c(C(=O)NCc2ccc(F)c(F)c2)c2ccc(C3=NC(C)(C)CO3)cc2n1Cc1ccccc1 [Compound 71, 1-Benzyl-N-(3,4-difluorobenzyl)-6-(4,4-dimethyl-4,5-dihydrooxazol-2-yl)-2-isopropyl-1H-indole-3-carboxamide]	47	97%	–
CCOC(=O)c1ccc2c(C(=O)NCc3cccc(F)c3)c(C(C)C)n(Cc3ccccc3)c2c1	42	99%	–
CC(C)c1c(C(=O)NCc2ccc(F)c(F)c2)c2ccc(C(=O)N3CCCC3)cc2n1Cc1ccccc1	–	170 nM (100) %	IC50: 170 nM
CC(C)NC(=O)c1ccc2c(C(=O)NCc3ccc(F)c(F)c3)c(C(C)C)n(Cc3ccccc3)c2c1	634	100%	–
CC(C)c1c(C(=O)NCc2ccc(F)c(F)c2)c2ccc(OC3CCOCC3)cc2n1Cc1ccccn1 [Compound 143, N-(3,4-Difluorobenzyl)-2-isopropyl-1-(pyridin-2-ylmethyl)-6-(tetrahydro-2H-pyran-4-yloxy)-1H-indole-3-carboxamide]	36	99%	–
CC(C)c1c(C(=O)NCc2ccc(F)c(F)c2)c2ccc(N3CCOCC3)cc2n1Cc1ccccn1 [Compound 207, N-(3,4-Difluorobenzyl)-2-isopropyl-6-morpholino-1-(pyridin-2-ylmethyl)-1H-indole-3-carboxamide]	130	97%	–
CCCCCCOc1ccc2c(C(=O)NCc3ccc(F)c(F)c3)c(C(C)C)n(Cc3ccccc3)c2c1 [Compound 14, 1-Benzyl-N-(3,4-difluorobenzyl)-6-(hexoxy)-2-isopropyl-1H-indole-3-carboxamide]	–	–	S1P3 (% inh): 3.1 μM (96) %; IC50 (read-out: S1P3 IC50): 3100 nM
CC[C@H]1COC(c2ccc3c(C(=O)NCc4ccc(F)c(F)c4)c(C(C)C)n(Cc4ncco4)c3c2)=N1 [Compound 83, (S)—N-(3,4-Difluorobenzyl)-6-(4-ethyl-4,5-dihydrooxazol-2-yl)-2-isopropyl-1-(oxazol-2-ylmethyl)-1H-indole-3-carboxamide]	280	99%	–
CCC(=O)Oc1ccc2c(C(=O)NCc3ccc(F)c(F)c3)c(C(C)C)n(Cc3ccccc3)c2c1 [Compound 24, 1-Benzyl-3-(3,4-difluorobenzylcarbamoyl)-2-isopropyl-1H-indol-6-yl Propionate]	–	–	S1P3 (% inh): 20 nM (100) %; IC50 (read-out: S1P3 IC50): 20 nM
CCCOc1ccc2c(C(=O)NCc3ccc(F)c(F)c3)c(C(C)C)n(Cc3ccccc3)c2c1 [Compound 10, 1-Benzyl-N-(3,4-difluorobenzyl)-2-isopropyl-6-propoxy-1H-indole-3-carboxamide]	–	–	Kb [3]: 2 nM

SMILES	IC50 [1] [nM]	S1P3 (% inh) [2]	further results
CC(C)C(=O)Oc1ccc2c(C(=O)NCc3ccc(F)c(F)c3)c(C(C)C)n(Cc3ccccc3)c2c1 [Compound 25, 1-Benzyl-3-(3,4-difluorobenzylcarbamoyl)-2-isopropyl-1H-indol-6-yl Isobutyrate]	–	–	S1P3 (% inh): 14 nM (100) %; IC50 (read-out: S1P3 IC50): 14 nM
CC(C)c1c(C(=O)NCc2ccc(F)cc2)c2ccc(NC3CCCC3)cc2n1Cc1ccccc1 [Compound 192, 1-Benzyl-6-(cyclopentylamino)-N-(4-fluorobenzyl)-2-isopropyl-1H-indole-3-carboxamide]	–	–	S1P3 (% inh): 70 nM (100) %; IC50 (read-out: S1P3 IC50): 70 nM
CC(C)Oc1ccc2c(C(=O)NCc3cccnc3)c(C(C)C)n(Cc3ccccn3)c2c1	–	ND (98) %	–
CC(C)c1c(C(=O)NCc2ccc(F)c(F)c2)c2ccc(OC3CCOC3=O)cc2n1Cc1ccccc1 (stereo not shown) [Compound 20, 1-Benzyl-N-(3,4-difluorobenzyl)-2-isopropyl-6-(2-oxotetrahydrofuran-3-yloxy)-1H-indole-3-carboxamide]	81	100%	–
CC(C)Oc1ccc2c(C(=O)NCc3ccc(F)c(F)c3)c(C(C)C)n(Cc3ccccc3)c2c1 [Compound 11, 1-Benzyl-N-(3,4-difluorobenzyl)-6-isopropoxy-2-isopropyl-1H-indole-3-carboxamide]	–	–	Kb [3]: 2 nM
CC(C)OC(=O)c1ccc2c(C(=O)NCc3ccc(F)c(F)c3)c(C(C)C)n(Cc3ccccc3)c2c1	45	99%	–
CC(C)Oc1ccc2c(C(=O)NCc3ccc(F)c(F)c3)c(C3=NCCO3)n(Cc3ccccn3)c2c1 [Compound 104, N-(3,4-Difluorobenzyl)-2-(4,5-dihydrooxazol-2-yl)-6-isopropoxy-1-(pyridin-2-ylmethyl)-1H-indole-3-carboxamide]	3900	50%	–
CC(C)c1c(C(=O)NCc2ccc(F)c(F)c2)c2ccc(OC3CCCC3)cc2n1Cc1cccnc1 [Compound 153, 6-(Cyclopentyloxy)-N-(3,4-difluorobenzyl)-2-isopropyl-1-(pyridin-3-ylmethyl)-1H-indole-3-carboxamide]	–	–	S1P3 (% inh): 5 nM (99) %; IC50 (read-out: S1P3 IC50): 5 nM
CC(C)c1c(C(=O)NCc2cncc(F)c2)c2ccc(OC3CCCC3)cc2n1Cc1ccccn1 [Compound 148, 6-(Cyclopentyloxy)-N-((5-fluoropyridin-3-yl)methyl)-2-isopropyl-1-(pyridin-2-ylmethyl)-1H-indole-3-carboxamide]	–	–	S1P3 (% inh): 13 nM (100) %; IC50 (read-out: S1P3 IC50): 13 nM
CC(C)Oc1ccc2c(C(=O)NCc3ccc(F)c(F)c3)c(CN3CCCC3)n(Cc3ccccn3)c2c1 [Compound 175, N-(3,4-Difluorobenzyl)-6-isopropoxy-1-(pyridin-2-ylmethyl)-2-(pyrrolidin-1-ylmethyl)-1H-indole-3-carboxamide]	1100	100%	–
CON=C(C)c1c(C(=O)NCc2ccc(F)c(F)c2)c2ccc(OC(C)C)cc2n1Cc1ccccn1 (stereo in doubt) [Compound 111, (E)-N-(3,4-Difluorobenzyl)-6-isopropoxy-2-(1-(methoxyimino)ethyl)-1-(pyridin-2-ylmethyl)-1H-indole-3-carboxamide]	–	–	S1P3 (% inh): 263 nM (100) %; IC50 (read-out: S1P3 IC50): 263 nM
C#CCOc1ccc2c(C(=O)NCc3ccc(F)c(F)c3)c(C(C)C)n(Cc3ccccn3)c2c1	324	99%	–
CC(C)c1c(C(=O)NCc2cncc(F)c2)c2ccc(NC3CCCC3)cc2n1Cc1ccccc1 [Compound 193, 1-Benzyl-6-(cyclopentylamino)-N-((5-fluoropyridin-3-yl)methyl)-2-isopropyl-1H-indole-3-carboxamide]	–	–	S1P3 (% inh): 163 nM (100) %; IC50 (read-out: S1P3 IC50): 163 nM
[2H]C([2H])([2H])C([2H])(Oc1ccc2c(C(=O)NCc3ccc(F)c(F)c3)c(C(=C)C)n(Cc3ccccn3)c2c1)C([2H])([2H])[2H] [Compound 199, N-(3,4-Difluorobenzyl)-2-isopropenyl-6-isopropoxy-1-(pyridin-2-ylmethyl)-1H-indole-3-carboxamide-d7]	51	100%	–
CCO/N=C(\C)c1ccc2c(C(=O)NCc3ccc(F)c(F)c3)c(C(C)C)n(Cc3ccccc3)c2c1	262	98%	–
CC(C)c1c(C(=O)NCc2ccc(F)c(F)c2)c2ccc(OC(=O)C(C)(C)C)cc2n1Cc1ccccc1 [Compound 22, 1-Benzyl-3-(3,4-difluorobenzylcarbamoyl)-2-isopropyl-1H-indol-6-yl Pivalate]	–	–	S1P3 (% inh): 4 nM (99) %; IC50 (read-out: S1P3 IC50): 4 nM
CC(C)c1c(C(=O)NCc2ccc(F)c(F)c2)c2ccc(C(=O)N(C)C)cc2n1Cc1ccccc1	197	100%	–
